In US20100105655A1, “NOVEL COMPOUNDS 515” (ASTRAZENECA AB, priority 2008, published 2010) one finds IC50 data, which are given here for 11 compounds.

For the first assay, the target named is T1, IGFR kinase (Homo sapiens, UniProt P08069).
T1 construct: purchased Millipore
T1 sequence (P08069 31-1367): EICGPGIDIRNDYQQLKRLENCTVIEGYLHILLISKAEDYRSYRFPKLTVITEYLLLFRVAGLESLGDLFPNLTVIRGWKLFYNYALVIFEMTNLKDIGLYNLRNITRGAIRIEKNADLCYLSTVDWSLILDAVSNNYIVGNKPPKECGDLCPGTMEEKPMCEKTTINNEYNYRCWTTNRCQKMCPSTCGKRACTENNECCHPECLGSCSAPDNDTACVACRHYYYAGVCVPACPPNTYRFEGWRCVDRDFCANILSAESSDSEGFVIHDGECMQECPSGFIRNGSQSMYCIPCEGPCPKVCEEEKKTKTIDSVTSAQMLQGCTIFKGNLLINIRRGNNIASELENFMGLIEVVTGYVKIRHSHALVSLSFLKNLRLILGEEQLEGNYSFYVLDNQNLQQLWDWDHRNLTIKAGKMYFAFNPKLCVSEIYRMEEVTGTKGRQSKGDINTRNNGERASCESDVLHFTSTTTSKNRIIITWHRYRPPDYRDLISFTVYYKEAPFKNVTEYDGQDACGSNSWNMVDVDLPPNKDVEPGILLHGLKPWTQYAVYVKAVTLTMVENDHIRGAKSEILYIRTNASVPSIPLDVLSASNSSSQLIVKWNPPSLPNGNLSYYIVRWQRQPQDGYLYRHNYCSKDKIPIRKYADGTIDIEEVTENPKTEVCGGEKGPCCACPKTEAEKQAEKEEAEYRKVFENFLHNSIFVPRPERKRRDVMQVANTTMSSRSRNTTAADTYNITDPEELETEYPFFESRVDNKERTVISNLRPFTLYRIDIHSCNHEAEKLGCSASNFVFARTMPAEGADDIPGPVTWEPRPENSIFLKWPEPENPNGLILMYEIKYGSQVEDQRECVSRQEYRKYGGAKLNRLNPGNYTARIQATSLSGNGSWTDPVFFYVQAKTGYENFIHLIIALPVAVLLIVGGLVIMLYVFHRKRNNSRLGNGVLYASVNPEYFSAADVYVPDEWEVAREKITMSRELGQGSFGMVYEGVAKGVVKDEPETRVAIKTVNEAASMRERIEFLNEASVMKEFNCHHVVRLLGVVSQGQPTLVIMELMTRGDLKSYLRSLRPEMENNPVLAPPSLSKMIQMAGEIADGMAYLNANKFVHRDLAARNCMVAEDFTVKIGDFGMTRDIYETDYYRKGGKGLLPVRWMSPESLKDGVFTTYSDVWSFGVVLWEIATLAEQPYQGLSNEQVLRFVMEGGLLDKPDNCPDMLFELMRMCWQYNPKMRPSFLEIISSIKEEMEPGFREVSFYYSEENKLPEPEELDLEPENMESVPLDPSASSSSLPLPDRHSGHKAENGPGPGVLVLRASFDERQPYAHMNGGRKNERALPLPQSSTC
The assay can be described thus: Enzyme assay (c), IGFR kinase, Caliper LabChip. It counts as biochemical.
Details: not given
By IC50 is commonly meant the concentration at which inhibition is half-maximal. In turn, `COc1cc(N2CC3CN(CCCO)CC(C2)O3)ccc1Nc1ncc(Cl)c(-c2cnc3c(F)cccn23)n1` [Example 204, 3-[7-[4-[[5-chloro-4-(8-fluoroimidazo[1,2-a]pyridin-3-yl)pyrimidin-2-yl]amino]-3-methoxy-phenyl]-9-oxa-3,7-diazabicyclo[3.3.1]nonan-3-yl]propan-1-ol] gave an IC50 of 19 nM.

Staying with this assay, now noted: 30 nM IGFR kinase, 6 uM ATP, 3 uM peptide mix; read-out: IGFR IC50.
For `COc1cc(N2CC[C@H](O)C2)ccc1Nc1ncc(Cl)c(-c2cnc3ccccn23)n1` [Example 3.47, (3S)-1-[4-[(5-chloro-4-imidazo[1,2-a]pyridin-3-yl-pyrimidin-2-yl)amino]-3-methoxy-phenyl]pyrrolidin-3-ol], the concentration for half-maximal inhibition (IC50) came out at 32 nM.
Same read-out and setting: the value for `COc1cc(O[C@@H]2CCN(C(=O)[C@H](C)O)C2)ccc1Nc1ncc(Cl)c(-c2cnc3ccccn23)n1` [Example 12A, (2S)-1-[(3R)-3-[4-[(5-chloro-4-imidazo[1,2-a]pyridin-3-yl-pyrimidin-2-yl)amino]-3-methoxy-phenoxy]pyrrolidin-1-yl]-2-hydroxy-propan-1-one] was 13 nM; that for `COc1cc(N2CCN(CCO)CC2)ccc1Nc1ncc(Cl)c(-c2cnn3ccccc23)n1` [Example 134, 2-[4-[4-[(5-chloro-4-pyrazolo[1,5-a]pyridin-3-yl-pyrimidin-2-yl)amino]-3-methoxy-phenyl]piperazin-1-yl]ethanol] was 5 nM; that for `COc1cc(N2CC3CN(C(=O)CO)CC(C2)O3)ccc1Nc1ncc(Cl)c(-c2cnc3c(F)cccn23)n1` [Example 212, 1-[7-[4-[[5-chloro-4-(8-fluoroimidazo[1,2-a]pyridin-3-yl)pyrimidin-2-yl]amino]-3-methoxy-phenyl]-9-oxa-3,7-diazabicyclo[3.3.1]nonan-3-yl]-2-hydroxy-ethanone] was 19 nM.
Same read-out and setting: with `COCCOC(=O)N1CCN(c2ccc(Nc3ncc(Cl)c(-c4cnc5ccccn45)n3)c(OC)c2)CC1` [Example 45, 2-methoxyethyl 4-[4-[(5-chloro-4-imidazo[1,2-a]pyridin-3-yl-pyrimidin-2-yl)amino]-3-methoxy-phenyl]piperazine-1-carboxylate] the figure was 24 nM.
The same measure, in the same setting: with `COc1cc(OC2CN(C[C@@H](C)O)C2)ccc1Nc1ncc(Cl)c(-c2cnc3ccccn23)n1` [Example 62, (2R)-1-[3-[4-[(5-chloro-4-imidazo[1,2-a]pyridin-3-yl-pyrimidin-2-yl)amino]-3-methoxy-phenoxy]azetidin-1-yl]propan-2-ol] the figure was 19 nM.
In the case of `COc1cc(N2CCN(CCO)CC2)ccc1Nc1ncc(C#N)c(-c2cnc3ccccn23)n1` [Example 116, 2-[[4-[4-(2-hydroxyethyl)piperazin-1-yl]-2-methoxy-phenyl]amino]-4-imidazo[1,2-a]pyridin-3-yl-pyrimidine-5-carbonitrile], the IC50 is 13 nM.
On the same count and under the same terms, with `COc1cc(N2CCN(C(=O)[C@@H](N)CO)CC2)ccc1Nc1ncc(Cl)c(-c2cnc3ccccn23)n1` [Example 24.7, (2S)-2-amino-1-[4-[4-[(5-chloro-4-imidazo[1,2-a]pyridin-3-yl-pyrimidin-2-yl)amino]-3-methoxy-phenyl]piperazin-1-yl]-3-hydroxy-propan-1-one] the figure was 5 nM; with `CNCC(=O)N1CCN(c2ccc(Nc3ncc(Cl)c(-c4cnc5c(F)cc(F)cn45)n3)c(OC)c2)CC1` [Example 248, 1-[4-[4-[[5-chloro-4-(6,8-difluoroimidazo[1,2-a]pyridin-3-yl)pyrimidin-2-yl]amino]-3-methoxy-phenyl]piperazin-1-yl]-2-(methylamino)ethanone], 6 nM.
Still for that read-out and setting: the value for `COc1cc(N2CCN(C(=O)C3CCC(=O)N3)CC2)ccc1Nc1ncc(Cl)c(-c2cnc3ccccn23)n1` (centres unmarked) [Example 25.1, 5-[4-[4-[(5-chloro-4-imidazo[1,2-a]pyridin-3-yl-pyrimidin-2-yl)amino]-3-methoxy-phenyl]piperazine-1-carbonyl]pyrrolidin-2-one] was 9 nM.
